Measurements taken from US10149879B2 (priority 2014, dated 2018).

Columns and labels:
Assay type in all cases: in vivo, rats
Hemoglobin = experiment: Glycation of hemoglobin; conditions: H.G. animals; standard drug
Protocol: Before utilizing the test drug for human consumption the pre-clinical safety and efficacy profile of single plant candidate extract as well as in combined form was conducted following standard norms. […] The effect of test drug was assessed on glucose levels, insulin level, glycosylated hemoglobin, and pro-inflammatory cytokines, and the most important bio-marker neopterin including various neuro-psychological assessments. […] Aldose Reductase Activity and Glycation of Hemoglobin Following Test Formulation Treatment

Cholesterol = experiment: Anti-hyperlipidemic activity: cholesterol; conditions: H.G. animals, standard drug
Protocol: (§1) Before utilizing the test drug for human consumption the pre-clinical safety and efficacy profile of single plant candidate extract as well as in combined form was conducted following standard norms. The biological property of test formulation was validated in streptozotocin (STZ) induced diabetes animal model which also helped in evaluation of vascular complications caused due to diabetes. The effect of test drug was assessed on glucose levels, insulin level, glycosylated hemoglobin, and pro-inflammatory cytokines, and the most important bio-marker neopterin including various neuro-psychological assessments. The mechanism based study clearly indicated the neopterin decreasing potential of test formulation which exerted neuro-protective activity, better glycemic control, anti-atherosclerotic, anti-inflammatory, anti-oxidant effects in STZ induced diabetes among the animals. Further, its therapeutic activity has also been validated in neurogenic dementia and other cognitive deficits associated with diabetes mellitus.

Adiponectin = Adiponectin enhancing property in experimental diabetes; conditions: H.G. animals, standard drug
Protocol: as §1, with “mellitus. Adiponectin Enhancing Property of Berberis aristata in Experimental Diabetes” for “mellitus.”

Creatinine, Urea = experiment: Effect on renal function; conditions: H.G. animals; standard drug
Protocol: as §1, with “mellitus. Effect of Test Formulation on Renal Function” for “mellitus.”

Glycogen = experiment: Restoration of glycogen in liver and skeletal muscle; conditions: H.G. animals; standard drug
Protocol: (§2) Before utilizing the test drug for human consumption the pre-clinical safety and efficacy profile of single plant candidate extract as well as in combined form was conducted following standard norms. […] The effect of test drug was assessed on glucose levels, insulin level, glycosylated hemoglobin, and pro-inflammatory cytokines, and the most important bio-marker neopterin including various neuro-psychological assessments.

HDL-c, VLDL-c, LDL-c = experiment: Lipoprotein profile and assessment of atherosclerosis; parameters: HDL-c / VLDL-c / LDL-c: unit not given here; conditions: H.G. animals; standard drug
Protocol: as §2

SOD = experiment: Attenuation of oxidative stress: SOD; parameters: SOD, Brain / SOD, Heart / SOD, Liver / SOD, Kidney: unit not given here; conditions: H.G. animals; standard drug
Protocol: as §1, with “mellitus. Attenuation of Oxidative Stress Following Treatment with Test Formulation—Restriction of SOD” for “mellitus.”

Effect on body weight = conditions: H.G. animals, standard drug, in g (unit assumed)
Protocol: as §2

Adipocyte = experiment: Reduction in hypertrophy of adipocyte; conditions: H.G. animals; standard drug
Protocol: as §1, with “mellitus. Reduction in hypertrophy of Adipocyte on Treated with Test Formulation” for “mellitus.”

[1] = tested on: streptozotocin (STZ) induced diabetes animal model; experiment: Anti-hyperglycemic activity, weekly assessment of plasma glucose; conditions: H.G. animals, standard drug
Protocol: as §1
Low dose=100 mg/kg; High dose=200 mg/kg

F,1-6 bisphosphate = experiment: Regulation of key enzymes in gluconeogenesis: F,1-6 bisphosphate; conditions: H.G. animals; standard drug
Protocol: as §1

| SMILES | Glycated Hb (Hemoglobin) | Hb (Hemoglobin) [g/dL] | Cholesterol (Cholesterol; 0 days) [mg/dL] | Cholesterol (Cholesterol; 7th day) [mg/dL] | Cholesterol (Cholesterol; 14th Day) [mg/dL] | Adiponectin (Adiponectin; 7th day) [pg/mL] | Adiponectin (Adiponectin; 14th Day) [pg/mL] | Creatinine (Creatinine, Urea) [mg/dL] | Urea (Creatinine, Urea) [mg/dL] | Glycogen content, Liver (Glycogen) | Glycogen content, Skeletal muscle (Glycogen) | HDL-c (HDL-c, VLDL-c, LDL-c) | LDL-c (HDL-c, VLDL-c, LDL-c) | VLDL-c (HDL-c, VLDL-c, LDL-c) | SOD, Brain (SOD) | SOD, Heart (SOD) | SOD, Kidney (SOD) | SOD, Liver (SOD) | SOD, Pancrease (SOD) | Body weight (Effect on body weight; 0th Day) | other results |
| --- | --- | --- | --- | --- | --- | --- | --- | --- | --- | --- | --- | --- | --- | --- | --- | --- | --- | --- | --- | --- | --- |
| CCc1ccc(CCOc2ccc(CC3SC(=O)NC3=O)cc2)nc1 (centres unmarked) [Pioglitazone] | 0.53 ± 0.07 mg/g of Hb | 10.09 ± 1.85 | 112.33 ± 7.50 | 94.23 ± 8.23 | 81.41 ± 9.94 | 7.13 ± 2.10 | 8.02 ± 2.01 | 3.20 ± 0.09 | 48.00 ± 2.00 | 975.00 ± 43.14 nM/Mg of Tissue | 42.02 ± 7.26 nM/Mg of Tissue | 31.44 ± 2.85 | 35.11 ± 7.29 | 17.86 ± 2.05 | 19.33 ± 3.66 | 15.83 ± 5.83 | 16.67 ± 1.86 | 13.50 ± 1.76 | 6.91 ± 0.22 | 200.00 ± 4.65 | Anti-atherogenic index (HDL-c, VLDL-c, LDL-c): 10.02 ± 5.23; Atherogenic Index (HDL-c, VLDL-c, LDL-c): 2.20 ± 0.35; Body weight (Effect on body weight; 7th Day): 178.80 ± 4.00; Body weight (Effect on body weight; 14th Day): 169.13 ± 2.84; Adipocyte cell area (Adipocyte): 136.31 ± 13.53 μm; Plasma glucose ([1]; 0th Day): 170.17 ± 12.55; Plasma glucose ([1]; 7th Day, in mg/dL): 153.83 ± 15.68; Plasma glucose ([1]; 14th Day, in mg/dL): 140.17 ± 6.25; F,1-6 bisphosphate, Kidney (F,1-6 bisphosphate): 31.78 ± 3.71 μm/min/mg of protein; F,1-6 bisphosphate, Liver (F,1-6 bisphosphate): 44.33 ± 4.29 μm/min/mg of protein |
| CN(C)C(=N)N=C(N)N [Metformin] | 0.44 ± 0.04 mg/g of Hb | 10.06 ± 0.06 | 110.33 ± 9.55 | 100.00 ± 5.63 | 88.17 ± 4.79 | 6.90 ± 1.87 | 6.11 ± 1.39 | 3.18 ± 0.05 | 45.45 ± 5.25 | 1095.03 ± 63.10 nM/Mg of Tissue | 86.98 ± 12.80 nM/Mg of Tissue | 27.68 ± 3.51 | 41.38 ± 4.26 | 22.10 ± 3.15 | 19.83 ± 3.56 | 14.33 ± 5.13 | 16.00 ± 2.37 | 15.33 ± 0.86 | 7.01 ± 0.46 | 207.25 ± 6.44 | Adipocyte cell area (Adipocyte): 146.24 ± 10.85 μm; Plasma glucose ([1]; 0th Day, in mg/dL): 169.83 ± 10.03; Plasma glucose ([1]; 7th Day, in mg/dL): 148.67 ± 8.85; Plasma glucose ([1]; 14th Day, in mg/dL): 118.83 ± 8.75; F,1-6 bisphosphate, Kidney (F,1-6 bisphosphate): 29.67 ± 5.60 μm/min/mg of protein; F,1-6 bisphosphate, Liver (F,1-6 bisphosphate): 34.59 ± 4.90 μm/min/mg of protein |
